For test [1], the system named is human cervical cancer cell line (HeLa). Put plainly: MTT in vitro tumor cell inhibition. Type of test: cell-based. The note with it: 3 days. From the text: (§1) An effective amount of the above compounds and/or the compositions containing the same used as an active ingredient have an effect on inhibiting the tumor cells. The present invention detects the inhibitory effect of the hydroxy-substituted benzophenone compounds on the proliferation of the in vitro cultured human tumor cells by the methylthiazolyl tetrazolium method.
(§2) The method is used to detect cell viability. […] Particles can be dissolved by dimethyl sulfoxide (DMSO) isopropyl alcohol or 10% acidified SDS (sodium dodecyl sulfate), and a microplate reader is used to measure the OD value at A570 wavelength, which indirectly reflects the number of live cells. The method is used for detection of the cytokines bioactivity, as well as anti-tumor drugs and tumor radiosensitivity and cytotoxicity test, and has the characteristics of being simple, fast, economical, sensitive and accurate and having good reproducibility and no need to use radionuclides. This method has been widely used in screening preclinical anticancer drugs and detecting the drug sensitivity of fresh tumor cells. The method is as below:
(§3) (1) The tumor cell suspension prepared by 0.25% of trypsin digestion and adjusted to a cell concentration of 10^5/ml with RPMI1640 containing 10% fetal calf serum is added to a 96-well plate with 100 μl for each well, cultured 24 hours, and then different dosages of drugs are added with 100 μl/well, for which, the negative control groups, positive control groups and withering wells are set, and 4 parallel wells are set for each group.
(§4) (2) They are continually cultured in incubator containing 5% of CO2 at 37° C. for 24 to 48 hours. MTT solution (5 g/L) is added to each well before the termination of the experiment. The OD value at A570 nm is detected by microplate reader. The OD value at A570 of the negative group without the addition of drugs is taken as a control. The cell survival rate and cell inhibition rate of drugs are calculated according to the following formula: Cell survival rate=(OD value of test group/OD value of control group)×100% Cell inhibition rate (%)=(OD value of the control group−OD value of the test group/(OD value of the control group−OD value of the blank group)
(§5) 1. Tumor cell lines: human glioma cell line (U251), human colon cancer cell line (LOVO), human hepatoma cell line (HepG2), human lung cancer cell line (PC84045), human endometrial carcinoma cell line (JEC), human renal carcinoma (GRC), human gastric cancer cell line (MCG804), human cervical cancer cell line (HeLa), human hepatocellular carcinoma cell line (BEL-7402) and human umbilical vein endothelial cell line (ECV304) purchased from Animal Experimental Center of Zhongshan Medical College, and preserved by the present laboratory.
(§6) The tumor cell lines are cultured in RPMI-1640 medium containing 15% of the newborn bovine serum in a conventional manner, placed in the humidification incubator containing 5% of CO2 for being cultured at 37° C., and are observed for growth by an inverted microscope. A subculture is conducted every about 3-5 days, the cells in logarithmic growth phase are adopted to be digested with 0.25% of trypsin, and the serum-free RPMI-1640 medium is used for culturing the cell suspension; the blood counting plate makes counting, the trypan blue exclusion tests the cell activity, and the cell viability>95% is used for formal tests.
(§7) Liquid preparation: the compounds are labeled with the codes respectively, DMSO is used to dissolve each compound, the bacterial filter is used to remove bacteria, and each compound is prepared into 10^−4 g/ml, 10^−5 g/ml, 10^−6 g/ml and preserved at 4° C. for use. […]

The subject of test [2] is human colon cancer cell line (LOVO). Put plainly: MTT in vitro tumor cell inhibition. The class given is cell-based. The note with it: 3 days; for Inhibitory rate %: 10^−4 g/ml.
Source text: as §1, §2, §3, §4, §5, §6, §7

Test [3] has as its system human endometrial carcinoma cell line (JEC). Nature of the test: MTT in vitro tumor cell inhibition. The class given is cell-based. The note with it: 3 days.
Source text: as §1, §2, §3, §4, §5, §6, §7

Test [4] deals with human gastric cancer cell line (MCG804). Nature of the test: MTT in vitro tumor cell inhibition. The note with it: 3 days. Type of test: cell-based.
Source text: as §1, §2, §3, §4, §5, §6, §7

Test [5] has as its system human glioma cell line (U251). Put plainly: MTT in vitro tumor cell inhibition. The class given is cell-based. The note with it: 3 days.
Source text: as §1, §2, §3, §4, §5, §6, §7

The test system of test [6] is human hepatoma cell line (HepG2). Put plainly: MTT in vitro tumor cell inhibition. The note with it: 3 days. The class given is cell-based.
Source text: as §1, §2, §3, §4, §5, §6, §7

Test [7] has as its system human lung cancer cell line (PC84045). Put plainly: MTT in vitro tumor cell inhibition. The note with it: 3 days. Type of test: cell-based.
Source text: as §1, §2, §3, §4, §5, §6, §7

The test system of a further test is MCF7. Put plainly: MTT in vitro tumor cell inhibition. Type of test: cell-based. The note with it: 3 days.
Source text: as §1, §2, §3, §4, §6
Liquid preparation: the compounds are labeled with the codes respectively, DMSO is used to dissolve each compound, the bacterial filter is used to remove bacteria, and each compound is prepared into 10^−4 g/ml, 10^−5 g/ml, 10^−6 g/ml and preserved at 4° C. for use.
MTT method: a bottle of 4-5 days old cells in the exponential growth phase are adopted to be cultured, and added with an appropriate amount of Trypsin-EDTA solution, so as to enable the adherent cells to fall off, and are prepared with 10 ml of RPMI-1640 medium containing 15% newborn bovine serum into suspensions; after stained with trypan blue, the cell number is counted on the blood counting plate to ensure that the live cells is more than 97%; the cell suspensions are diluted by the complete medium so that each […] of solution contains 5000-400000 cells; the 96-well plate is used with 200 μl of cell suspensions added into each. The 96-well plate is placed at 37° C. in 5% of CO2 containing incubator for 24 hours; the test compounds are diluted at 3 dilutions with 5 wells in parallel for each concentration; the serum-free RPMI1640 is used as the control group. […]

Test [8] relates to human umbilical vein endothelial cell line (ECV304). Nature of the test: MTT in vitro cell inhibition. The note with it: 3 days. Type of test: cell-based.
Source text: as §1, §2, §3, §4, §5, §6, §7

The test system of a further test is HPV 6/11 Virus. Nature of the test: HPV detection via fluorescence quantitative PCR in genital warts tissue homogenate. Set-up: species or system human papillomavirus. The note with it: genital warts tissue homogenate, 37° C., 24 hours, FQ-PCR. From the text: (§8) The aforesaid compounds and/or compositions containing the same are effective in killing and inhibiting HPV type 6/11 and type 16/18, which can be used for the preparation of drugs for preventing and treating viral infection of HPV, preventing and treating genital warts, flat warts, common warts, vaginitis, cervicitis and cervical erosion, cervical cancer, esophageal cancer and other cancers caused by HPV. The present invention observes the effect of active ingredients and products by the detection of the change in the amount of the HPV virus through the real-time quantitative PCR. Such method has been applied in several publications (Youling C A I, et al., Chinese STD/AIDS, 2002, 8: 2,108; Yuansheng W U, Ruijiang F A N, et al., Practical Application of Integrated Chinese and Western Medicine in Clinics, 2003, 3: 2,1).
(§9) The microemulsion obtained in example 1 is used as a test sample and saline for blank control.
(§10) The standard clinical genital warts specimens from a variety of patients after being cut off are washed with saline for removing bloods, and are cut into pieces under aseptic conditions, added with saline in 3 times of their volumes to be uniformly mixed, grinded into homogenate and placed at −40° C. for use.
(§11) Each test sample drug microemulsion and the saline of 50 μl for each are respectively added with 50 μl the genital warts tissue homogenate, and incubated at 37° C. for 24 hours; tests are performed according to the operation procedure provided by the HPV6, 11 and 16, 18 type FQ-PCR diagnostic kits provided by Da'an Gene Diagnostic Center. 0.2 ml of DNA extracted by the conventional alkaline lysis method is put into the thin-walled reaction tube, and simultaneously added with primers, F-PROBE, DNTP, DNA polymerase, buffers and the like in a certain concentration; ABI PRISM™ 7700 fluorescence quantitative PCR amplifier is used to repeat 40 circulations each with 45 s at 93° C. and 120 s at 55° C. after predegeneration at 93° C. for 2 mins; the quantitative results are automatically analyzed by the computer software to calculate the quantitative results of the initial copy number. The data are shown in Table 2 (completed by Da'an Gene Clinical Test Center).

A further test concerns HPV16/18. The description is as above. Set-up: species or system human papillomavirus. The note with it: genital warts tissue homogenate, 37° C., 24 hours, FQ-PCR.
Source text: as §8, §9, §10, §11

Turning to `O=C(c1ccc(O)c(O)c1)c1cc(O)c(O)c(O)c1O` [2,3,3′,4,4′,5-hexahydroxybenzophenone], the Inhibitory rate % in [1] (10^−4 g/ml) came to 58.94%; in test [2] it was 75.61%; in test [3] (10^−4 g/ml), 79.84%; in test [3] (10^−5 g/ml) it was 32.36%; in [4] (MCG804, 10^−4 g/ml), 71.91%; in [5] (U251, 10^−4 g/ml), 64.27%. The Inhibitory rate % in [6] (HepG2, 10^−4 g/ml) was 77.03%; in [6] (HepG2, 10^−5 g/ml), 55.49%; in test [7] (PC84045, 10^−4 g/ml), 80.43%; in test [7] (PC84045, 10^−5 g/ml), 70.86%; in [7] (PC84045, 10^−6 g/ml) it was 41.369%; with MCF7 (MCF7, 10^−4 g/ml), 65.36%. Also, the Inhibitory rate % in test [8] (ECV304, 10^−4 g/ml) was found to be 70.81%; in test [8] (ECV304, 10^−5 g/ml) it was 43.47%. Moreover, the “Inhibitory rate, sensitivity class” value is listed as “insensitive (<30% means insensitive)” in test [1] (10^−5 g/ml); “insensitive (<30% means insensitive)” in [1] (10^−6 g/ml); “insensitive (<30% means insensitive)” in test [2] (10^−5 g/ml); “insensitive (<30% means insensitive)” in test [2] (10^−6 g/ml); “insensitive (<30% means insensitive)” in [3] (10^−6 g/ml); “insensitive (<30% means insensitive)” in [4] (MCG804, 10^−5 g/ml). The “Inhibitory rate, sensitivity class” value in test [4] (MCG804, 10^−6 g/ml) is reported as “insensitive (<30% means insensitive)”; in test [5] (U251, 10^−5 g/ml) it was “insensitive (<30% means insensitive)”; in [5] (U251, 10^−6 g/ml), “insensitive (<30% means insensitive)”; in test [6] (HepG2, 10^−6 g/ml), “insensitive (<30% means insensitive)”; in the test on MCF7 (MCF7, 10^−5 g/ml), “insensitive (<30% means insensitive)”; in the test with MCF7 (MCF7, 10^−6 g/ml) it was “insensitive (<30% means insensitive)”. Also, in [8] (ECV304, 10^−6 g/ml), the “Inhibitory rate, sensitivity class” value is reported as “insensitive (<30% means insensitive)”.
As for `O=C(c1ccccc1)c1ccc(O)cc1O` [2,4-dihydroxybenzophenone], the Inhibitory rate % worked out at 95.65% in [1] (10^−4 g/ml); 48.96% in [1] (10^−5 g/ml); 37.32% in test [1] (10^−6 g/ml); 93.80% in test [2]; 93.58% in [3] (10^−4 g/ml); 62.30% in test [3] (10^−5 g/ml). For the same compound, the Inhibitory rate % in test [3] (10^−6 g/ml) was 32.56%; in [4] (MCG804, 10^−4 g/ml) it was 92.54%; in test [4] (MCG804, 10^−5 g/ml), 86.35%; in test [4] (MCG804, 10^−6 g/ml) it was 41.35%; in test [5] (U251, 10^−4 g/ml), 85.31%; in test [5] (U251, 10^−5 g/ml), 67.25%. The Inhibitory rate % in test [5] (U251, 10^−6 g/ml) stood at 31.21%; in test [6] (HepG2, 10^−4 g/ml), 94.78%; in test [6] (HepG2, 10^−5 g/ml) it was 66.74%; in test [6] (HepG2, 10^−6 g/ml), 58.63%; in test [7] (PC84045, 10^−4 g/ml) it was 92.65%; in [7] (PC84045, 10^−5 g/ml) it was 89.88%. Further, the Inhibitory rate % stood at 44.39% in [7] (PC84045, 10^−6 g/ml); 87.60% in the test on MCF7 (MCF7, 10^−4 g/ml); 68.62% with MCF7 (MCF7, 10^−5 g/ml); 28.57% with MCF7 (MCF7, 10^−6 g/ml); 96.17% in test [8] (ECV304, 10^−4 g/ml); 73.12% in test [8] (ECV304, 10^−5 g/ml). In addition, in [8] (ECV304, 10^−6 g/ml), the Inhibitory rate % was found to be 45.37%. Besides, the “Inhibitory rate, sensitivity class” value in test [2] (10^−5 g/ml) and in [2] (10^−6 g/ml) was “insensitive (<30% means insensitive)” each time.
With `CCCOC(=O)c1cc(O)c(O)c(O)c1` [Propyl gallate, propyl 3,4,5-trihydroxybenzoate, reference compound], in the test with HPV 6/11 Virus, the “HPV 6/11 Virus” value turned out to be 0 copy/ml. This compound returned an HPV16/18 with HPV16/18 of 0 copy/ml.
